# Reference: patent US9211296B2, “Therapeutic compounds for blocking DNA synthesis of POX viruses” (priority 2007, dated 2015)
# Biological target: vaccinia virus DNA synthesis (viral DNA polymerase and its associated factors) (Vaccinia virus, UniProt P06856)
# Type: biochemical
# Settings: read-out: DNA Synthesis IC50
# Wherever Blocking the replication of vaccinia virus in cells is given: test concentration or dose not given here.
row,Structure (SMILES),IC50 [µM]
1,CCN1CCN(c2ccc(Nc3ccnc4cc5ccccc5cc34)cc2)CC1,0.5
2,BrCc1ccc(-c2noc(-c3ccncc3)n2)cc1,1.3
3,CC[n+]1cc(/C=C2\SC=CN2C)c(C)c2cc(OC)c3ccccc3c21,3.5
4,COc1ccc2c(c1)C=C/C(=C\c1sc3ccccc3[n+]1C)N2C,4
5,CC(C)Nc1ccc(Nc2ccnc3cc4ccccc4cc23)cc1,4.1
6,CCOC(=O)c1cnc2c(C)c(C)ccc2c1NCCCN(C)C,5
7,CC1=CC(C)(C)N=C(Nc2nc(C)c3cc(C)cc(C)c3n2)N1,5.3
8,CN(C)CCc1cc2c(c3c1ccc1ccccc13)OCO2,5.4
9,CCN(CC)CCCNc1nc2cc(OC)c(OC)cc2c2nc(-c3ccccc3)nn12,5.9
10,Cc1cc(NCCN2CCCCC2)c2ccc3ccccc3c2n1,6
11,OC(CN1CCNCC1)Cn1c2ccc(Br)cc2c2cc(Br)ccc21 (stereo not shown),6.3
12,CC1CCCC(C)N1CCNc1nc2ccccc2c2nc(-c3ccccc3)nn12 (stereo not shown),7.3
13,O=C(O)c1ccc(CS(=O)(=O)c2ccccc2)o1,7.4
14,COc1ccc2nc(NC(=N)N)nc(C)c2c1,7.4
15,O=C(NCCCN1CCCC1)c1cc2c(Cl)nc3ccccc3c2s1,10
16,Cc1ccc2nc(Cl)c3cc(C(=O)N(CCN(C)C)Cc4ccco4)sc3c2c1,10
17,CN(C)CC/N=c1\cc(-c2ccccc2)oc2ccc(Cl)cc12 [drawing 93],6.7

# Tested on: vaccinia virus
# Type: cell-based
# Settings: not given
row,Structure (SMILES),Blocking the replication of vaccinia virus in cells
1,"CN(C)CC/N=c1\cc(-c2ccccc2)oc2ccc(Cl)cc12 [I, (E)-N-1-(6-chloro-2-phenyl-4H-chromen-4-ylidene)-N2,N2-dimethylethane-1,2-diamine]",effective in blocking the replication of vaccinia virus in cells
2,"Cc1ccc2oc(-c3ccccc3)c/c(=N\CCO)c2c1 [II, (E)-2-(6-methyl-2-phenyl-4H-chromen-4-ylideneamino)ethanol]",effective in blocking the replication of vaccinia virus in cells
3,"CCC/N=c1\cc(-c2ccccc2)oc2ccc(C)cc12 [III, (E)-N-(6-methyl-2-phenyl-4H-chromen-4-ylidene)propan-1-amine]",effective in blocking the replication of vaccinia virus in cells
4,"O=C(O)c1ccccc1Nc1cccc(C(F)(F)F)c1 [IV, Flufenamic Acid]",effective in blocking the replication of vaccinia virus in cells
5,"O=C(O)Cn1c2ccc(Cl)cc2c2nc3ccccc3nc21 [IX, 6H-Indolo[2,3-b]quinoxaline-6-acetic acid, 9-chloro-(9CI)]",effective in blocking the replication of vaccinia virus in cells
6,"O=c1cc(-c2ccc(O)cc2)oc2cc(O)cc(O)c12 [V, Apigenin]",effective in blocking the replication of vaccinia virus in cells
7,"Cn1cc(C2=C(c3cn(CCCSC(=N)N)c4ccccc34)C(=O)NC2=O)c2ccccc21 [VI, Carbamimidothioic acid, 3-[3-[2,5-dihydro-4-(1-methyl-1H-indol-3-yl)-2,5-dioxo-1H-pyrrol-3-yl]-1H-indol-1-yl]propyl ester (9CI)]",effective in blocking the replication of vaccinia virus in cells
8,"COc1ccc(-c2cc3ccccn3c2C(=O)c2cccnc2)c(OC)c1 [VII, (2-(2,4-dimethoxyphenyl)indolizin-3-yl)(pyridin-3-yl)methanone]",effective in blocking the replication of vaccinia virus in cells
9,"COC(=O)c1cccc2c1-c1ccccc1/C2=N\O [VIII, (E)-methyl 9-(hydroxyimino)-9H-fluorene-4-carboxylate]",effective in blocking the replication of vaccinia virus in cells
10,"c1ccc2nc3c(nc2c1)c1ccccc1n3CCN1CCOCC1 [X, 6H-Indolo[2,3-b]quinoxaline-6-(2-morpholinoethy)]",effective in blocking the replication of vaccinia virus in cells
11,"CCS(=O)(=O)N1CCN=C1SCc1ccc(Cl)cc1Cl [XI, 1H-Imidazole, 2-[[(2,4-dichlorophenyl)methyl]thio]-1-(ethylsulfonyl)-4,5-dihydro-(9CI)]",effective in blocking the replication of vaccinia virus in cells
12,"Cc1cc(OC(=O)c2ccco2)nc(SCc2c(Cl)cccc2Cl)n1 [XII, 2-(2,6-dichlorobenzylthio)-6-methylpyrimidin-4-yl furan-2-carboxylate]",effective in blocking the replication of vaccinia virus in cells
13,"N=C1/C(=C/c2coc3ccccc3c2=O)C(=O)N=C2SC=NN12 [XIII, (Z)-5-imino-6-((4-oxo-4H-chromen-3-yl)methylene)-5H-[1,3,4]thiadiazolo[3,2-a]pyrimidin-7(6H)-one]",effective in blocking the replication of vaccinia virus in cells
14,"Cc1ccc2c(Sc3ccc(Cl)cc3)c(C(=O)O)[nH]c2c1 [XIV, 3-(4-chlorophenylthio)-6-methyl-1H-indole-2-carboxylic acid]",effective in blocking the replication of vaccinia virus in cells
15,"Cc1csc2c(N3CCN(C(=O)NC(C)(C)C)CC3)ncnc12 [XIX, N-tert-butyl-4-(7-methylthieno[3,2-d]pyrimidin-4-yl)piperazine-1-carboxamide]",effective in blocking the replication of vaccinia virus in cells
16,"Cc1cc(N)c2cc(OCCOc3ccc4nc(C)cc(N)c4c3)ccc2n1 [XL, 6,6′-(ethane-1,2-diylbis(oxy))bis(2-methylquinolin-4-amine)]",effective in blocking the replication of vaccinia virus in cells

row,Structure (SMILES),Blocking the replication of vaccinia virus in cells
1,"O=S(=O)(c1cc(Cl)ccc1O)c1cc(Cl)ccc1O [XLI, 2,2′-sulfonylbis(4-chlorophenol)]",effective in blocking the replication of vaccinia virus in cells
2,"Oc1ccc([Te]CCNCC[Te]c2ccc(O)cc2)cc1 [XLII, 4,4′-(2,2′-azanediylbis(ethane-2,1-diyl)bis(tellanediyl))diphenol]",effective in blocking the replication of vaccinia virus in cells
3,"Cc1c(N=Cc2cc(Br)cc(Br)c2O)cccc1C(=O)O [XV, Benzoic acid, 3-[[(3,5-dibromo-2-hydroxyphenyl)methylene]amino]-2-methyl-(9CI)]",effective in blocking the replication of vaccinia virus in cells
4,"Cc1cc(/N=C/c2cc(Cl)cc(Cl)c2O)no1 [XVI, (E)-2,4-dichloro-6-((5-methylisoxazol-3-ylimino)methyl)phenol]",effective in blocking the replication of vaccinia virus in cells
5,"CC(=O)n1c2ccccc2c2nc(C)sc21 [XVII, 4H-Thiazolo[5,4-b]indole, 4-acetyl-2-methyl-(9CI)]",effective in blocking the replication of vaccinia virus in cells
6,"CCN1CCCC1CNC(=O)c1ccc2c(c1)sc1nc(-c3cccc(OC)c3)cn12 (stereo not shown) [XVIII, Imidazo[2,1-b]benzothiazole-7-carboxamide, N-(1-ethyl-2-pyrrolidyl)methyl-2-(3-methoxyphenyl)-(9CI)]",effective in blocking the replication of vaccinia virus in cells
7,"O=C(Nc1ccccc1C(=O)O)OCC1c2ccccc2-c2ccccc21 [XXI, Benzoic acid, 2-[[(9H-fluoren-9-ylmethoxy)carbonyl]amino]-(9CI)]",effective in blocking the replication of vaccinia virus in cells
8,"COc1ccc(Nc2nc(N3CCN(C)CC3)nc3ccccc23)c(OC)c1 [XXII, 4-Quinazolinamine, N-(2,4-dimethoxyphenyl)-2-(4-methyl-1-piperazinyl)-(9CI)]",effective in blocking the replication of vaccinia virus in cells
9,"COc1ccc2c(C)nc(N=C(N)N=C(C)c3ccccc3C(=O)O)nc2c1 [XXIII, Benzoic acid, 2-[1-[[amino[(7-methoxy-4-methyl-2-quinazolinyl)imino]methyl]imino]ethyl]-(9CI)]",effective in blocking the replication of vaccinia virus in cells
10,"CCn1c2ccccc2c2ccc(/C=N/n3cnnc3)cc21 [XXIV, (E)-N-((9-ethyl-9H-carbazol-2-yl)methylene)-4H-1,2,4-triazol-4-amine]",effective in blocking the replication of vaccinia virus in cells
11,"CN(C)CCOC(=O)c1ccc2[nH]c3c(c2c1)CSCC3 [XXIX, Thiopyrano[4,3-b]indole-8-carboxylic acid, 1,3,4,5-tetrahydro-, 2-(dimethylamino)ethyl ester (7CI,8CI,9CI)]",effective in blocking the replication of vaccinia virus in cells
12,"O=C(C=Cc1ccco1)C=Cc1ccco1 [XXVI, 1,4-Pentadien-3-one, 1,5-di-2-furanyl-(9CI)]",effective in blocking the replication of vaccinia virus in cells
13,"COC(=O)c1c(NC(=O)c2ccc(OC)cc2)sc2c1CCN(C(C)C)C2.Cl [XXVII, Methyl 6-isopropyl-2-(4-methoxyphenylamido)-4,5,6,7-tetrahydrothieno[2,3-c]pyridine-3-carboxylate hydrochloride]",effective in blocking the replication of vaccinia virus in cells
14,"CCOC(=O)c1c(NC(=O)/C=C/C(=O)O)sc(C)c1-c1ccccc1 [XXVIII, (E)-4-(3-(ethoxycarbonyl)-5-methyl-4-phenylthiophen-2-ylamino)-4-oxobut-2-enoic acid]",effective in blocking the replication of vaccinia virus in cells
15,"CN(C)c1ccc(-c2cccc(-c3ccc(N(C)C)cc3)[o+]2)cc1 [XXX, 2,6-bis(4-(dimethylamino)phenyl)pyrylium]",effective in blocking the replication of vaccinia virus in cells
16,"CCN1C(=O)/C(=C/C=C/c2ccco2)C(=O)NC1=S [XXXI, (E)-1-ethyl-5-((E)-3-(furan-2-yl)allylidene)-2-thioxodihydropyrimidine-4,6(1H,5H)-dione]",effective in blocking the replication of vaccinia virus in cells
